Experimental data taken from patent US20260355199A1, “COMPOSITIONS AND METHODS FOR TREATING OR PREVENTING NONALCOHOLIC STEATOHEPATITIS (NASH), ANOREXIA, DEPRESSION, ENDOMETRIOSIS, AND OTHER DISEASES OR DISORDERS” (priority 2022, published 2026).
Entries after “also recorded” stand apart in the source; their conditions may differ.

Tests used:
[1] = Liver toxicity after three weeks of once-a-week Bobcat339; assay type: in vivo, mouse
Protocol: For corticosterone, blood samples were obtained via retroorbital bleeding between 19:00 and 20:00. For alanine transaminase, aspartate transaminase and bilirubin, blood samples were collected by cardiac puncture of terminally anesthetized animals. All blood samples were collected in EDTA tubes (Microtainer with K2EDTA, BD, 365974). The tubes were centrifuged at 2,000×g at 4 °C for 20 min, and plasma was collected and stored at −80 °C until use. Plasma corticosterone levels were measured using Corticosterone ELISA kit (Enzo, ADI-900-097) according to the manufacturer's instructions. Kits used to measure alanine transaminase (EALT-100) and aspartate transaminase (EASTR-100) were purchased from Bioassay Systems. The bilirubin assay kit (MAK126) was purchased from Sigma Aldrich.

[2] = tested on: AGRP in the ARC; assay: AGRP expression and feeding of chow-fed mice given Bobcat339 in drinking water; assay type: in vivo, mouse
Description: It has previously been shown that TET3 expression is aberrantly elevated in the livers of humans and mice with type 2 diabetes and that liver-specific, siRNA-mediated TET3 knockdown improves glucose homeostasis both in dietary and genetic mouse models of diabetes (Li D. et al., 2020, Nature Communications, 11:342). Bobcat339 (4-Amino-1-[1,1′-biphenyl]-3-yl-5-chloro-2(1H)-pyrimidinone) is a synthetic cytosine derivative capable of binding competitively with 5mC to the active sites of [COMPOUND LEFT OUT] and inhibits their enzymatic activity in cultured neuronal cells (Chua G. N. L. et al., 2019, ACS Medicinal Chemistry Letters, 10:180-185). Although not bound by any particular theory, it was hypothesized that Bobcat339 has an anti-diabetic effect owing to its ability to inhibit [COMPOUND LEFT OUT]. Thus, the present studies employed high fat diet (HFD)-induced diabetic mice that were treated with Bobcat339 in drinking water for two weeks. […] Thus, nondiabetic mice fed on regular chow were treated with Bobcat339 in drinking water. Four days later, ARCs were isolated from ad libitum-fed mice and analyzed. […]
Immunofluorescence Postfixed sections were cut into 40 μm-thick sections. […] The sections were coverslipped and visualized using a Keyence BZ-X700 fluorescence microscope. The fluorescence signals from GFP and mCherry in AgRP neurons were detected without immunostaining. […]

## Nc1nc(=O)n(-c2cccc(-c3ccccc3)c2)cc1Cl [Bobcat339, 4-Amino-1-[1,1′-biphenyl]-3-yl-5-chloro-2(1H)-pyrimidinone]
[1]; 3-weeks of once-a-week i.p. injection
  tolerability: well tolerated
[1]; three weeks of once-a-week i.p. Bobcat339
  liver toxicity: no evidence of liver toxicity; also recorded: no liver toxicity has been detected
[2]; Bobcat339 100 mg/kg per day in drinking water, 4 days, 100 mg/kg/day
  AGRP expression in the ARC: increased AGRP expression in the ARC; also recorded: increased AGRP peptide; also recorded: increased AGRP production
[2]; mice exposed to Bobcat339
  feeding: induced hyperphagia
